# “Also recorded” adds a separate entry of the source.
# Legend:
# [1] = in vivo; conditions: female, NIH Swiss, mouse; for Kp: brain
# Protocol: (§2) Analysis. […] All the solvents were of HPLC grade. Chromatography was performed on an Altech Hypersil ODS C18 (5 μm particle size, 4.5×150 mm, Altech Associates, Deerfield, Ill.).
# (§3) In vivo pharmacokinetics: Female NIH Swiss mice (Harland Sprague-Dawley, Indianapolis, Ind.) weighing 24-28 g were used for the pharmacokinetic experiments.
# (§4) At least three animals each were sacrificed at 0.08, 0.025, 0.5, 0.75, 1.0, 2.0, 3.0, 4.0, 5.0 and 6.0 hours after drug administration. Blood (serum) from the heart and whole-brain samples were collected. Serum samples were treated immediately and brain samples were frozen at −20° C. until analysis. To determine the nucleoside concentrations in the serum, a know amount of serum sample, 50 μL of the internal standard (AzdU, 5 μg/mL) and 1.0 mL of acetonitrile as a protein precipitant were added to polypropylene microcentrifuge tubes (1.7 mL). Tubes were mixed and centrifuged at 9,000 rpm for 10 minutes.
# (§5) After homogenization, 1.8 mL of acetonitrile was added to tissue homogenates, samples were mixed and centrifuged at 9,000 rpm for 10 minutes. The resulting supernatant from the serum or the brain was transferred to a clean tube and dried under a stream of nitrogen gas at 22° C. The residue was reconstituted in 220 μL of mobile phase D and after centrifugation at 12,000 rpm for 40 min, 100-150 μL was injected for the HPLC analysis. […] After each assay, the column was equilibrated to initial conditions for 7 minutes.
# (§6) The area under concentration (AUC) versus time profiles from time zero to the last measured concentration were determined by the linear trapezoidal rule and the AUC from the time of the last measured concentration to infinity was determined by dividing the last determined concentration by the least-squares elimination rate constant (λZ). […] The relative tissue exposure (re) of the compounds was calculated from AUCTissue/AUCserum.
# [2] = In vivo pharmacokinetics of 6-AAP and ara-A in mice (serum and brain)
# Protocol: as §2, §3, §4, §5, §6
# [3] = system: microsomal fraction of the human liver homogenate; experiment: Azido reduction assay
# Protocol: Briefly, incubation mixtures contained either 1.5 mg of human liver fraction protein (homogenate or supernatant fractions following centrifugation) or 1.5 mg microsomal protein, 5.0 mM MgCl2, 6.0 mM NADPH and 0.4 mg/mL of 6-AAP in 0.1 M phosphate buffer saline at pH 7.4 (final volume of 0.2 mL). The reaction was initiated by adding NADPH and conducted at 37° C. for 60 minutes under nitrogen. Reactions were terminated by heating at 100° C. for 30 seconds and the proteins were removed by centrifugation at 14,000 g for six minutes. Aliquots (100 μL) were then analyzed for nucleosides by HPLC. Control incubations were performed in the absence of protein.
# Inhibition of azido reduction assay: Assays were performed using 1.5 mg microsomal protein as described above following either a 45 second exposure to carbon monoxide or a 5 minute pre-incubation with 1 mM metyrapone prior to the addition of NADPH.
# [4] = Stability of 6-AAP at pH 2, 7 and 11 by UV spectroscopy; type: physicochemical; conditions: 37° C.
# Protocol: (§1) The stability of 6-AAP at pH 2, 7 and 11 and towards adenosine deaminase hydrolysis was studied by UV spectroscopy.
# Stability studies of 6AAP. A kinetic study at varying pHs (pH 2, 7 and 11 at 37.1° C.) was performed on a UV spectrophotometer to investigate the stability of 6-AAP. […] At pH 2, the compound was stable.
# [5] = In vitro metabolism study of 6-AAP and ara-A in mouse liver homogenate, serum and brain homogenate
# Protocol: (§7) All the solvents were of HPLC grade. Chromatography was performed on an Altech Hypersil ODS C18 (5 μm particle size, 4.5×150 mm, Altech Associates, Deerfield, Ill.).
# (§8) In vitro metabolism study. Female NIH Swiss mice (Harland Sprague-Dawley, Indianapolis, Ind.) were sacrificed and serum, liver and brain tissues were collected before each experiment. Serum was collected from several animals. The brain and liver were washed in normal saline at 4° C., wiped and then weighed. […] Samples and blanks of volume 400 μL were collected at 0, 5, 15, and 30 minutes and at 1, 2, 3, 4 and 5 hours.
# (§9) To measure the analyte concentrations in serum, liver or brain homogenate, 400 μL of sample was mixed with 50 μL of internal standard (AzdU, 5 μg/mL) and 0.7 mL of acetonitrile. After centrifugation, the supernatant was decanted to another tube and treated with anhydrous Na2SO4, then vortexed for one minute and centrifuged again. The organic layer was separated and evaporated under nitrogen stream at room temperature. The residue was reconstituted in mobile phase A and filtered through MPS-I micropartition system (3KD membranes (Amicon Inc., Beverly, Mass.) by centrifugation for 50 minutes at 2000 rpm to further clean-up the samples. 100 μL of filtrate was injected for analysis.
# [6] = target: T1, adenosine deaminase (Bos taurus, UniProt P56658); experiment: Adenosine deaminase study of 6-AAP; type: biochemical, calf; conditions: phosphate buffer pH 7.4, 25° C., up to three hours
# T1 construct: Type II crude powder from calf intestinal mucosa; purchased Sigma chemical Co., St. Louis, Mo; Type II crude powder; host or cells: calf intestinal mucosa
# T1 sequence (P56658 1-363): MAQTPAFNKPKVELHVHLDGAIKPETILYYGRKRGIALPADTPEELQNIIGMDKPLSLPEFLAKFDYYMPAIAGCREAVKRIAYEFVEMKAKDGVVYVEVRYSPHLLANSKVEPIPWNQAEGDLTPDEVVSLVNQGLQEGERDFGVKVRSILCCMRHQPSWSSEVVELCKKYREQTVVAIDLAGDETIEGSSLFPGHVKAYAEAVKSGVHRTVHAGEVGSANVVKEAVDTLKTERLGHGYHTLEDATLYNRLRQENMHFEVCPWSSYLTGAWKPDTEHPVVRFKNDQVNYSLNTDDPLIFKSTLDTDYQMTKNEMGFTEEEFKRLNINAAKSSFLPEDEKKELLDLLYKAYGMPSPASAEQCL
# Protocol: as §1
# Materials: Melting points were determined on a Mel-Temp II laboratory device and are uncorrected. The ^1H NMR spectra were recorded on a JEOL FX 90 Q FT spectrophotometer, with TMS as the internal standard; chemical shifts are reported in parts per million (δ), and the signals are quoted as s (singlet), d (doublet), t (triplet) or m (multiplet). UV spectra are recorded on a Beckman DU-650 spectrophotometer. TLC was performed on Uniplates (silica gel) purchased from Analtech Co. Elemental analysis was performed by Atlantic Microlab, Inc., Norcross, Ga. Ara-A and Adenosine deaminase (Type II crude powder from calf intestinal mucosa, 1-5 units/mg activity) was purchased from Sigma chemical Co., St. Louis, Mo. All other chemicals are of reagent grade. Methanol and acetonitrile, methyl sulfoxide were purchased from EM Science, Gibbstown, N.J.
# Adenosine deaminase studies.
# [7] = in vitro; conditions: female, NIH Swiss, mouse
# Protocol: as §7, §8, §9
# [8] = in vivo; cited from earlier work
# [9] = mouse, in vivo, iv, 100 mg/kg
# Protocol: as §2, §3, §4, §5, §6
# [10] = in vivo; conditions: female, NIH-Swiss, mouse, in vivo; for half-life: t½; for AUC: AUC0-τ
# Description: Animal studies. […] Animal studies were approved by the University of Georgia Animal Care and Use Committee and conducted in accordance with guidelines established by the Animal Welfare Act and the National Institutes of Health Guide for the Care and Use of Laboratory Animals. […] Animals were acclimatized to this environment for one week prior to the experiments.
# At selected time intervals, mice (three animals per each time point) were anesthetized with diethyl ether and sacrificed by exsanguination via left ventricular heart puncture. Serum was harvested from blood collected. The brain was excised, rinsed with normal saline, blotted dry and weighed.
# Analytical Methodology. […] The brain or liver tissue were homogenized in a 1:1 (g:mL) ratio with ice cold isotonic 0.05 M phosphate buffer, pH 7.4. […] Acetonitrile (600 μL) containing 0.1% acetic acid was added while vortexing to precipitate proteins. The tubes were centrifuged at 3,000 rpm for five minutes and the supernatant was transferred to a clean tube. Supernatant was evaporated to dryness under a stream of nitrogen gas at room temperature. The residual film was reconstituted in 110 μL of mobile phase and 50 μL was injected onto the HPLC.
# Chromatographic separations were performed using a Hypersil ODS column 150×4.5 mm, 5 μm particle size (Alltech Associates, Deerfield, Ill.) preceded by a guard column packed with 30-40 μm pellicular Perisorb RP-18. Mobile phase flow rate was 2 mL/min. For the analysis of FAAddP and 2′-F-ara-ddA, the mobile phase consisted of 7% (v/v) acetonitrile in 80 mM sodium acetate, pH 5.0. […] Eluants were monitored at a UV wavelength of 260 nm.
# Nucleoside standards ranging from 0.04 μg/mL to 100 μg/mL, prepared in blank PBS, serum, brain homogenate and liver homogenate were treated the same as unknown samples. Samples with nucleoside concentrations greater than 100 μg/mL were diluted with the appropriate blank matrix.
# Data analysis in vivo studies. Nucleoside concentration as a function of time data were analyzed by a non-compartmental technique. […] Relative brain exposure (re) was calculated from AUCbrain/AUCserum.
# [11] = mice; after oral and intravenous prodrug 2′-F-ara-ddP administration; cited from earlier work
# [12] = system: HIV-1; conditions: relative to parent compounds ddA, ddI; cited from earlier work
# [13] = after 6-AAP 100 mg/kg iv, brain
# [14] = after 6-AAP 100 mg/kg iv, serum
# [15] = after 6-AAP 100 mg/kg oral, brain
# [16] = after 6-AAP 100 mg/kg oral, serum
# [17] = 6-AAP and coformycin incubated in mouse liver homogenate
# [18] = 6-AAP incubated in mouse liver homogenate
smiles,measurement,setting,value
"[N-]=[N+]=Nc1ncnc2c1ncn2[C@@H]1O[C@H](CO)[C@@H](O)[C@@H]1O [Compound 6-AAP, 9-(β-D-arabinofuranosyl)-6-azidopurine]",Kp,"[1]; intravenous, 100 mg/kg",0.02
same,Kp,"[1]; iv, 100 mg/kg",0.02
same,Kp,"[1]; oral, 100 mg/kg",0.3
same,Kp,"[1]; po, 100 mg/kg",0.33
same,AUC,"[1]; serum, iv, 20 mg/kg",85600 ng·h/mL
same,AUC,"[1]; serum, iv, 100 mg/kg",201000 ± 17900 ng·h/mL
same,AUC,"[1]; serum, po, 100 mg/kg",13800 ± 1400 ng·h/mL
same,bioavailability,"[1]; serum, po, 100 mg/kg",6.8%
same,"Maximum concentration in serum, intravenous",[2]; after 6-AAP 100 mg/kg iv,465 ± 167 µg/mL
same,"maximum concentration in the brain, intravenous",[2]; after 6-AAP 100 mg/kg iv,5.92 ± 0.7 µg/g
same,"time of maximum concentration in the brain, intravenous",[2]; after 6-AAP 100 mg/kg iv,5 min
same,AUC,[2]; [13],4410 ± 370 ng·h/mL
same,t1/2,[2]; [13],0.77 h
same,AUC,[2]; [14],201100 ± 17900 ng·h/mL
same,t1/2,[2]; [14],0.55 h
same,"Maximum concentration in serum, oral",[2]; after 6-AAP 100 mg/kg oral,7.8 ± 2.51 µg/mL
same,"maximum concentration in the brain, oral",[2]; after 6-AAP 100 mg/kg oral,1.87 µg/g
same,"time of maximum concentration in serum, oral",[2]; after 6-AAP 100 mg/kg oral,60 min
same,"time of maximum concentration in the brain, oral",[2]; after 6-AAP 100 mg/kg oral,30 min
same,re (brain),"[2]; after 6-AAP 100 mg/kg oral, AUCTissue/AUCserum",0.30
same,AUC,[2]; [15],4120 ± 370 ng·h/mL
same,t1/2,[2]; [15],1.29 h
same,AUC,[2]; [16],13770 ± 1400 ng·h/mL
same,t1/2,[2]; [16],0.58 h
same,fold difference in the AUC values after iv dosing of 20 and 100 mg/kg,[2]; serum,5 fold
same,azido reduction (metabolites formed),[3],converted to ara-A
same,stability at pH 2,"[4]; UV at 287.5 nm, 2.75 hours",did not show any significant change; also recorded: stable
same,stability at pH 7,"[4]; UV at 287.5 nm, 2.75 hours",did not show any significant change; also recorded: stable
same,stability at pH 11,[4]; UV spectroscopy,immediately changed its UV absorption maximum; also recorded: shifted from 287.5 nm to 222.5 nm immediately
same,Kel,[5]; [17],0.12 h⁻¹
same,T1/2,[5]; [17],5.98 h
same,Kel,[5]; 6-AAP incubated in mouse brain homogenate,0.01 h⁻¹
same,Kel,[5]; [18],0.14 h⁻¹
same,T1/2,[5]; [18],4.66 h
same,Kel,"[5]; 6-AAP incubated in mouse serum, calculated from 0 to 1 h",0.25 h⁻¹
same,T1/2,"[5]; 6-AAP incubated in mouse serum, calculated from 0 to 1 h (slow initial decline)",3.73 h
same,hydrolysis by adenosine deaminase,[6],not hydrolysed
same,half-life at 100 μg/mL,[7]; brain homogenate,7.29 h
same,half-life at 100 μg/mL,[7]; tissue homogenate,4.9 h
"Nc1ncnc2c1ncn2[C@@H]1O[C@H](CO)[C@@H](O)[C@@H]1O [ara-A, 9-(β-D-arabinofuranosyl)adenine, reference compound]",AUC,"[1]; in vivo, iv, 100 mg/kg",3950 ± 200 ng·h/mL
same,concentration at 25 minutes,"[1]; in vivo, iv, 100 mg/kg",330 ± 250 ng/mL
same,half-life of ara-A,[8],four times longer
same,"serum level, initial (declined from)","[9]; female, NIH Swiss",18500 ± 3500 ng/mL
same,presence in the brain,[9],not found
same,T1/2,[5]; [18],1.46 h
same,T1/2,[5]; Ara-A incubated in mouse liver homogenate,0.04 h
same,"half-life of ara-A generated from 6-AAP alone, times greater than that of ara-A itself",[5]; mouse liver homogenate,36 times
"O=c1[nH]cnc2c1ncn2[C@@H]1O[C@H](CO)C[C@@H]1F [2′-F-ara-ddI, 2′-fluoro-2′,3′-dideoxyinosine]",clearance,[10]; iv,36.3 mL/min/kg
same,Kp,"[10]; iv, 20 mg/kg",0.165
same,half-life,"[10]; iv, 20 mg/kg",0.41 h
same,t½,"[10]; iv, 55 mg/kg",0.96 h
same,half-life,"[10]; iv, 55 mg/kg",0.68 h
same,AUC/Dose,"[10]; iv, 112 mg/kg",0.025 μM · h/μmol/kg
same,AUC,"[10]; iv, 112 mg/kg",10.1 µM·h
same,half-life,"[10]; iv, 112 mg/kg",0.52 h
same,AUC/Dose,"[10]; po, 55 mg/kg",0.046 μM · h/μmol/kg
same,AUC,"[10]; po, 55 mg/kg",6.7 µM·h
same,half-life,"[10]; po, 55 mg/kg",2.92 h
same,AUCbrain/AUCserum ratio,[11],approximately 36%
same,potency in protecting CD4+ATH8 cells from cytopathogenic effects of HIV-1,[12],as potent as the parent compounds

# Reference: patent US6949521B2, “Therapeutic azide compounds” (priority 1995, dated 2005)
